US8093232B2, “2α-methyl-19-nor-(20S)-1α-hydroxy-bishomopregnacalciferol and its uses” (Wisconsin Alumni Research Foundation, priority 2004, dated 2012)

Key:
[1] = system: Human promyelocytic leukemia (HL60) cells; experiment: HL-60 cell differentiation (nitro blue tetrazolium reduction); type: cell-based; details: FIG. 2; for EC50: HL60 cells, 4 days, NBT reduction
Description: The study drugs were dissolved in ethanol and the concentrations determined using UV spectrophotometry. Serial dilutions were prepared so that a range of drug concentrations could be tested without changing the final concentration of ethanol (≦0.2%) present in the cell cultures.
Human promyelocytic leukemia (HL60) cells were grown in RPMI-1640 medium containing 10% fetal bovine serum. The cells were incubated at 37° C. in the presence of 5% CO2.
HL60 cells were plated at 1.2×10^5 cells/ml. Eighteen hours after plating, cells in duplicate were treated with drug. […] The percentage of differentiated cells was determined by counting a total of 200 cells and recording the number that contained intracellular black-blue formazan deposits. Verification of differentiation to monocytic cells was determined by measuring phagocytic activity (data not shown).

[2] = system: vitamin D-deficient rats; experiment: Bone calcium mobilization (serum calcium) in vitamin D-deficient rats; type: in vivo, rat
Description: (§1) Intestinal Calcium Transport and Bone Calcium Mobilization
(§2) Male, weanling Sprague-Dawley rats were placed on Diet 11 (0.47% Ca) diet+AEK for one week followed by Diet 11 (0.02% Ca)+AEK for 3 weeks. The rats were then switched to a diet containing 0.47% Ca for one week followed by two weeks on a diet containing 0.02% Ca. Dose administration began during the last week on 0.02% calcium diet. Four consecutive ip doses were given approximately 24 hours apart. Twenty-four hours after the last dose, blood was collected from the severed neck and the concentration of serum calcium determined as a measure of bone calcium mobilization. The first 10 cm of the intestine was also collected for intestinal calcium transport analysis using the everted gut sac method.

[3] = system: vitamin D-deficient rats; experiment: Intestinal calcium transport (everted gut sac) in vitamin D-deficient rats; type: in vivo, rat; details: for intestinal calcium transport: everted gut sac, FIG. 5
Description: as §1, §2

[4] = target: T1, full-length recombinant rat vitamin D receptor (Rattus norvegicus, UniProt P13053); experiment: Vitamin D receptor competitive binding with [3H]-1,25(OH)2D3; details: full-length recombinant rat VDR, FIG. 1
T1 construct: Full-length recombinant rat receptor was expressed in E. coli BL21 (DE3) Codon Plus RIL cells; histidine tag (C); made in house; host or cells: E. coli BL21 (DE3) Codon Plus RIL
T1 sequence (P13053 1-423): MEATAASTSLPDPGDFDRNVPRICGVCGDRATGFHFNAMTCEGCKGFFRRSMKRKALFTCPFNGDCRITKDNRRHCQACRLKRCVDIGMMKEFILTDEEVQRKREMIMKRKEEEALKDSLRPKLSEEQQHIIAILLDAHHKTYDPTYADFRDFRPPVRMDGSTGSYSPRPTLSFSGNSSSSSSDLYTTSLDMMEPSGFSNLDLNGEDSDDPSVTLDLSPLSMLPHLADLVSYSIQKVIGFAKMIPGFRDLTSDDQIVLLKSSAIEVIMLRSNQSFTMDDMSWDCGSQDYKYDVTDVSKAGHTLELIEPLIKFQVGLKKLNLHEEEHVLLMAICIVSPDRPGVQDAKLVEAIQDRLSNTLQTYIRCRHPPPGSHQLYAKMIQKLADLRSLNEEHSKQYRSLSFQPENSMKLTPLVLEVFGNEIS
Excerpt: Vitamin D Receptor Binding
Full-length recombinant rat receptor was expressed in E. coli BL21 (DE3) Codon Plus RIL cells and purified to homogeneity using two different column chromatography systems. The first system was a nickel affinity resin that utilizes the C-terminal histidine tag on this protein. The protein that was eluted from this resin was further purified using ion exchange chromatography (S-Sepharose Fast Flow). Aliquots of the purified protein were quick frozen in liquid nitrogen and stored at −80° C. until use. For use in binding assays, the protein was diluted in TEDK50 (50 mM Tris, 1.5 mM EDTA, pH7.4, 5 mM DTT, 150 mM KCl) with 0.1% Chaps detergent. The receptor protein and ligand concentration were optimized such that no more than 20% of the added radiolabeled ligand was bound to the receptor.
Radiolabeled and unlabeled ligands were added to 100 mcl of the diluted protein at a final ethanol concentration of ≦10%, mixed and incubated overnight on ice to reach binding equilibrium. The following day, 100 mcl of hydroxylapatite slurry (50%) was added to each tube and mixed at 10-minute intervals for 30 minutes. The hydroxylapaptite was collected by centrifugation and then washed three times with Tris-EDTA buffer (50 mM Tris, 1.5 mM EDTA, pH 7.4) containing 0.5% Titron X-100. […] Total binding was determined from the tubes containing only radiolabeled ligand.

[5] = system: 24-hydroxylase (24 Ohase) gene promoter; experiment: In vitro transcription assay (24-hydroxylase promoter luciferase reporter in ROS 17/2.8 bone cells); type: cell-based; details: FIG. 3
Description: In Vitro Transcription Assay
Transcription activity was measured in ROS 17/2.8 (bone) cells that were stably transfected with a 24-hydroxylase (24 Ohase) gene promoter upstream of a luciferase reporter gene (Arbour et al., 1998). Cells were given a range of doses. Sixteen hours after dosing the cells were harvested and luciferase activities were measured using a luminometer.
RLU=relative luciferase units.

Row | SMILES | EC50 [1] | serum calcium levels (bone calcium mobilization) ([2]; rats on 0.02% Ca diet, 4 consecutive ip doses, all dosages, FIG. 4) | intestinal calcium transport ([3]; 260 pmol/day) | binding to the receptor as compared to the standard 1,25-(OH)2D3 [4] | Ki ([4]; read-out: Ki, competition with [3H]-1,25(OH)2D3 for binding to the vitamin D receptor) | transcriptional activity in bone cells compared to 1α,25-dihydroxyvitamin D3 [5] | EC50 ([5]; ROS 17/2.8 cells, 24-OHase promoter-luciferase, 16 h, read-out: EC50, transcriptional activity in bone cells) | potency on HL-60 cell differentiation compared to 1,25(OH)2D3 [1] | EC50 ([1]; Homo sapiens, HL-60, 96 h) | mobilization of bone calcium ([2]; 87 pmol/day for 4 consecutive days, rats on 0.02% Ca diet, FIG. 4) | mobilization of bone calcium ([2]; 260 pmol/day, 780 pmol/day and 7020 pmol/day, rats on 0.02% Ca diet, FIG. 4) | bone calcium mobilization activity as compared to 1,25(OH)2D3 ([2]; FIG. 4, overall) | intestinal calcium transport ([3]; 87 pmol/day, 260 pmol/day or 780 pmol/day) | intestinal calcium transport ([3]; 2340 pmol/day) | activity in stimulating intestinal calcium transport as compared to 1,25(OH)2D3 ([3]; FIG. 5, overall)
1 | C=C1/C(=C\C=C2/CCC[C@]3(C)[C@@H]([C@H](C)CCCC(C)(C)O)CC[C@@H]23)C[C@@H](O)C[C@@H]1O [1,25(OH)2D3, 1α,25-dihydroxyvitamin D3, reference compound] | 3.6 nM | increased serum calcium levels at all dosages | promotes a significant increase | – | – | – | – | – | – | – | – | – | – | – | –
2 | CCC(C)C1CCC2C(=CC=C3CC(O)C(C)C(O)C3)CCCC21C [2α-methylbisP, 2α-methyl-19-nor-(20S)-1α-hydroxy-bishomopregnacalciferol] | – | – | – | bound slightly less | 1.6 nM | about the same transcriptional activity | 4.4 nM | almost as potent as 1,25(OH)2D3 | 37 nM | did not result in mobilization of bone calcium | without any substantial effect | very little bone calcium mobilization activity | does not promote intestinal calcium transport | significant intestinal calcium transport activity was recorded | very little activity
